Five compounds from ChEMBL document CHEMBL1149956, “Synthesis and biological evaluation of new 5-HPETE analogs” (Bioorg Med Chem Lett, 1994) can be followed below.

The target of assay [1] is T1, Polyunsaturated fatty acid 5-lipoxygenase (Homo sapiens) (UniProt P09917).
T1 sequence (whole entry): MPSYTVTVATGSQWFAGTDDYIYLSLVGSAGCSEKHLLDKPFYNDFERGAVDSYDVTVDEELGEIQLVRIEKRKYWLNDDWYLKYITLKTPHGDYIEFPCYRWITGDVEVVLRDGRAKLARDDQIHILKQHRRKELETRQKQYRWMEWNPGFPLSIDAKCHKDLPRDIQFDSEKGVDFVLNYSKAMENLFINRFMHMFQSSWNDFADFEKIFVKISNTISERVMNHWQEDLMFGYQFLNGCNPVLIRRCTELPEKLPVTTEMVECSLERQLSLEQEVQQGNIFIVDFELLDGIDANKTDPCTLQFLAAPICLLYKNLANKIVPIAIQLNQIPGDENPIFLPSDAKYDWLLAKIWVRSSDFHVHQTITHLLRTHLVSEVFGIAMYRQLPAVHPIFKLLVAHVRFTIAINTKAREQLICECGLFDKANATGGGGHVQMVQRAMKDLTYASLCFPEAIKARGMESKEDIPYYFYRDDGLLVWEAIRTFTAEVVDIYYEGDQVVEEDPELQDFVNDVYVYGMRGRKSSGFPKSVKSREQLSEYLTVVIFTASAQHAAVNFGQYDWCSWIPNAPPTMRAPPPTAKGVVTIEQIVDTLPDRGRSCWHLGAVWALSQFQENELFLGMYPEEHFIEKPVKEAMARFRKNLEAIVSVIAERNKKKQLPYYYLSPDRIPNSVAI
In words: Tested for the inhibition of 5-lipoxygenase from human polymorphonuclear leukocytes(PMN) at 10 uM concentration of the compound; value ranges from 70-90.

For assay [2], the target named is T1, Polyunsaturated fatty acid 5-lipoxygenase (Homo sapiens). In words: Tested for the inhibition of 5-lipoxygenase from human polymorphonuclear leukocytes(PMN) at 10 uM concentration of the compound; IA= Inactive.

A word on the inhibition: it is the change of the read-out against control, counted positive when it falls.

Activity calls are given as the source filed them. The calls are words filed in the database; no cut-off is given here.

In the case of `CCCCCCCCCCC/C=C\C=C\c1cc(CC(=O)OC)no1`, the inhibition in assay [1] amounted to 70%. With `CCCCC/C=C\C/C=C\C/C=C\C=C\C1CC(CC(=O)OC)=NO1` (stereo not given), the inhibition entry in assay [2] was “inactive”.

Consider `CCCCC/C=C\C/C=C\C/C=C\C=C\c1cc(CC(=O)OC)no1`, for which, in assay [1], the inhibition came out at 70%. Same read-out and setting: as for `CCCCCCCCCCC/C=C\C=C\C1CC(CC(=O)OC)=NO1` (stereo not given), the figure is 70%.

Consider `CCCCCCCCCCC/C=C\C=C\c1cc(C/C=N/O)no1`, for which, in assay [2], the inhibition entry was “inactive”.
